From patent US10654866B2, “Selective estrogen receptor degraders” (Eli Lilly and Company, priority 2018, dated 2020)

Legend:
[1] = target: ERα (wild type) (Homo sapiens (Human), UniProt P03372); experiment: ERα (wild type) competition binding assay; conditions: 3H-estradiol competition; Ki from IC50 by Cheng-Prusoff
Procedure: Add the test compound at 10 different concentrations ranging from 10,000 nM to 0.5 nM, and determine nonspecific binding in the presence of 1 μM of 1713 estradiol. Incubate the binding reaction (140 μL) for 4 hours at room temperature, and then add cold dextran-charcoal buffer (70 μL) (containing per 50 mL of assay buffer, 0.75 g of charcoal and 0.25 g of dextran) to each reaction. Mix the plates for 8 minutes on an orbital shaker at 4° C. and then centrifuge at 3000 rpm at 4° C. for 10 minutes. Transfer an aliquot (120 μL) of the mixture to another 96-well, white flat bottom plate (Costar) and add Perkin Elmer Optiphase Supermix scintillation fluid (175 μL) to each well. Seal the plates and shake vigorously on an orbital shaker. After an incubation of 2.5 hours, read the plates in a Wallac Microbeta counter. […] Convert the IC50 values for the compound to Ki using Cheng-Prusoff equation.

[2] = target: T1, ERα (Homo sapiens (Human), UniProt P03372); experiment: ERα degradation assay in MCF7 cells; format: cell-based; conditions: 24 hours, % ER positive cells, read-out: Relative IC50
T1 sequence (P03372 whole entry): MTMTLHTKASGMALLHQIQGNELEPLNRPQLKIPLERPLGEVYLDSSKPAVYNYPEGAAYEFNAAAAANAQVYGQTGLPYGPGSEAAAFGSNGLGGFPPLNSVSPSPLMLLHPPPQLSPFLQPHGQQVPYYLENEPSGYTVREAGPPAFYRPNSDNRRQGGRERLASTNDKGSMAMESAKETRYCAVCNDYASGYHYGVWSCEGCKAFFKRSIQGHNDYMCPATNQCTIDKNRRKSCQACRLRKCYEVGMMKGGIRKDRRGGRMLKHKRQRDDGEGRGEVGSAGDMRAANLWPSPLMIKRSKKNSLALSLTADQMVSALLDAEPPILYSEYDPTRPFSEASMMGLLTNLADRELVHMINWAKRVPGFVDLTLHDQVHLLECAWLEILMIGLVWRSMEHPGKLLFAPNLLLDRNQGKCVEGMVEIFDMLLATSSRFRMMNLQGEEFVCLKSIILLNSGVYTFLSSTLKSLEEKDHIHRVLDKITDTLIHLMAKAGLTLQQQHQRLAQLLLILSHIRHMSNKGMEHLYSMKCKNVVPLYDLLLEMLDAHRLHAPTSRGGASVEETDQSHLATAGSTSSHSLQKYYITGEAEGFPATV
Procedure: The purpose of the following ERα degradation assay is to measure the degradation of ERα by a test compound in an ERα positive breast cancer cell line such as MCF7.
Culture MCF7 (purchased from ATCC HTB-22) cells in DMEM media supplemented with 10% FBS, 0.01 mg/mL human insulin 1 and 1% penicillin/streptomycin antibiotics and plate in 384-well flat-bottom plates at a density of 4,000 cells per well in phenol red free DMEM media (20 μL) containing 10% charcoal stripped FBS. Incubate the cells overnight in a cell culture incubator (5% CO2, 95% relative humidity and 37° C.) and allow the cells to attach to the plate. The following day dose the cells with the test compound. Use an Echo 555 acoustic dispenser to prepare test compound serial dilutions (1:3) in a range from 6 μM to 0.0003 μM. Dose the cells with the addition of 5 μL from the serial dilution plate to the cell plate producing a final DMSO concentration of 0.2% with a final test compound concentration dose range between 2 and 0.0001 μM. For the maximum point, use media containing 0.2% of DMSO and for the minimum point, use fulvestrant diluted at 2 μM final concentrations in the growth media containing 0.2% DMSO. After dosing with the test compound, incubate the cell plates at 37° C. and 5% CO2 for 24 hours. Fix the cells by adding 14% para-formaldehyde (10 μL) for 30 minutes at room temperature. Wash the cells once with PBS (20 μL) and incubate with PBS (20 μL) containing 0.5% (v/v) TWEEN® 20 for 1 hour. Wash the cells with PBS containing 0.05% TWEEN® 20 (2×) and block with 3% BSA in PBS containing 0.05% TWEEN® 20 and 0.1% TRITON™ X-100 (20 μL/well) for 1 hour at room temperature. Add 1:500 Primary antibody (20 μL) (ERα (Clone SP1) monoclonal rabbit antibody # RM-9101-S, Thermo Scientific) dilution in 1% BSA in PBS containing 0.05% TWEEN® 20 per well, seal the plates and incubate overnight at 4° C. The following day wash the cells with PBS containing 0.05% TWEEN® 20 (2×) and incubate with secondary antibody (20 μL/well) (1:1000 dilution, Goat anti-rabbit IgM ALEXA FLUOR™ 488) in PBS 1% BSA for 105 minutes at room temperature. […] Seal the plates and incubate 1 hour at room temperature on the bench (preserved from light). Scan the plates with ACUMEN EXPLORER™ [Laser-scanning fluorescence microplate cytometer manufactured by TTP LABTECH LTD] to measure ERα. Image analysis is based on cellular fluorescent signals for identifying positive cells. Identify ER positive cells by mean intensity. Use total intensity at 575-640 nm from propidium iodide/DNA to identify individual cells. Assay output is % ER positive cells. Determine the IC50 by curve fitting to a four parameter logistic for each output using GENE DATA™.

[3] = system: MCF7 ESR1 Y537N mutant cells; experiment: Cell proliferation assay in MCF7-ESR1 Y537N-682; format: cell-based, human; conditions: seven days; read-out: Relative IC50 (μM) MCF7 ESR1 Y537N mutant cells
Procedure: Seed MCF7 (purchased from ATCC HTB-22) cells at a density of 2,000 cells per well in DMEM phenol red free media 10% FBS (20 μL volume) (charcoal stripped) into a clear bottom 384-well cell culture plate. Plate MCF7-ESRY537N-682 (generated by CRISPR/Cas9 gene editing of ESr1 gene in MCF7 cells, clone #682) in DMEM media supplemented with 10% FBS, and 1% penicillin/streptomycin antibiotics at a density of 1000 cells per well. Incubate the plates at 37° C. and 5% CO2. The following day dose the cells with the test compound. Use an Echo 555 acoustic dispenser to prepare test compound serial dilutions (1:3) in a range from 60 μM to 0.003 μM. Dose the cells with the addition of 5 μL from the serial dilution plate to the cell plate, producing a final DMSO concentration of 0.2% with a final test compound concentration dose range between 20 and 0.001 μM. For the maximum point use media containing 0.2% of DMSO and for the minimum point use fulvestrant diluted at 2 μM final concentrations in the growth media containing 0.2% DMSO. After dosing with the test compound, incubate the cell plates at 37° C. and 5% CO2. Seven days after test compound addition, remove the plates from the incubator and add cold EtOH 96% (65 μL) to each well. […] Seal the plates and incubate 1 hour at room temperature on the bench (preserved from light). Scan the plates with ACUMEN EXPLORER™ [Laser-scanning fluorescence microplate cytometer manufactured by TTP LABTECH LTD].

[4] = target: T1, ERα; experiment: PRα inhibition (ERα functional antagonism) cell assay in MCF7 cells; format: cell-based; conditions: MCF7 cells pretreated with 0.47 nM estradiol, % PRα positive cells; read-out: Relative IC50
Excerpt: The purpose of the following PRα inhibition (ERα functional antagonism) cell assay is to determine the antagonistic activity of a test compound against the ERα receptor. An antagonist in this assay is expected to block the function of the ERα receptor.
Carry out the assay conditions as detailed in the ERα degradation Cell base Acumen assay above, using the MCF7 cell line except that, prior to test compound dispensing, remove the media from the cell plate and pretreat all wells except for the negative control wells (column 24 of the plate) with assay media containing 0.47 nM estradiol for 30 minutes. In this assay, carry out immunostaining for the detection of PRα and scan the plates with ACUMEN EXPLORER™ [Laser-scanning fluorescence microplate cytometer manufactured by TTP LABTECH LTD] to measure PRα. Image analysis is based on cellular fluorescent signals for identifying positive cells. Identify PRα positive cells by mean intensity. Use total intensity at 575-640 from propidium iodide/DNA to identify individual cells. Assay output is % PRα positive cells. Determine the IC50 by curve fitting to a four parameter logistic for each output using GENE DATA™.

Chain of ERα (wild type) (P03372 whole entry): as above

| Compound | Ki [1] [nM] | DC50 [2] [nM] | IC50 [3] [µM] | IC50 [4] [nM] |
| --- | --- | --- | --- | --- |
| Oc1ccc2c3c(cnc2c1)-c1cccc(F)c1OC3c1ccc(OCCN2CC(CF)C2)cc1 (single isomer, unassigned) [Example 6B, 7-Fluoro-5-(4-{2-[3-(fluoromethyl)azetidin-1-yl]ethoxy}phenyl)-5H-[1]benzopyrano[4,3-c]quinolin-2-ol] | 1.13 | 9.13 | 0.0154 | 28.4 |
| Cc1cccc2c1OC(c1ccc(OCCN3CC(CF)C3)cc1)c1c-2cnc2cc(O)ccc12 (single isomer, unassigned) [Example 8A, 5-(4-{2-[3-(Fluoromethyl)azetidin-1-yl]ethoxy}phenyl)-7-methyl-5H-[1]benzopyrano[4,3-c]quinolin-2-ol] | 9.33 | 234 | 0.662 ± 0.117 | 206 |
| Cc1cccc2c1OC(c1ccc(OCCN3CC(CF)C3)cc1)c1c-2cnc2cc(O)ccc12 (single isomer, unassigned) [Example 8B, 5-(4-{2-[3-(Fluoromethyl)azetidin-1-yl]ethoxy}phenyl)-7-methyl-5H-[1]benzopyrano[4,3-c]quinolin-2-ol] | 0.94 | 9.62 ± 5.2 | 0.0142 ± 0.0111 | 48.5 ± 29.4 |
